Where no end group is shown, it is not given here.
Key:
AMPK (r) = assay: kinase profiler assay (radiometric); format: biochemical, rat; conditions: @ = 100 μm peptide; less than 100 = kinase inhibition, greater than 100 = stimulation
Excerpt: KIP peptides […] [SEQ ID NO: 142], […] [SEQ ID NO: 173], and […] [SEQ ID NO: 163] were utilized to profile a variety of different kinases. The kinase profiler assay services provided by Upstate, a part of Millipore Corporation (Billerica, Mass.), were utilized to conduct the kinase profiles. The kinase profiler assays, which are radiometric, are based on measuring the amount of radioactive transfer from an ATP (y-^33P-ATP) to a substrate peptide using known concentrations of kinase enzyme, inhibitor, ATP, and buffer at defined time points and temperatures. Details on the reaction conditions for each kinase are available at www.millipore.com/drugdiscovery/dd3/KinaseProfiler. […] ROCK-1(h) (5-10 mU) was incubated with 8 mM MOPS pH 7.0, 0.2 mM EDTA, 30 i.IM of the peptide […] [SEQ ID NO: 189], 10 mM Mg acetate and y-^33P-ATP (specific activity approximately 500 cpm/pmol, concentration as required) in a final reaction volume of 25 pl. The reaction was initiated by the addition of the MgATP mixture in the absence and presence of inhibitor compounds. […] The filtermat was washed three times for 5 minutes in 75 mM phosphoric acid, once in methanol, dried and counted by scintillation counting. […] Scintillation counts (radioactivity) directly correlate with kinase activity. […]

PKB β (h) = target: T1, PKB β (h) (Homo sapiens, UniProt P31751); assay: kinase profiler assay (radiometric); format: biochemical; conditions: read-out: Profile-1, PKB β (h)
T1 construct: purchased Upstate (Millipore) KinaseProfiler service
T1 sequence (P31751 whole entry): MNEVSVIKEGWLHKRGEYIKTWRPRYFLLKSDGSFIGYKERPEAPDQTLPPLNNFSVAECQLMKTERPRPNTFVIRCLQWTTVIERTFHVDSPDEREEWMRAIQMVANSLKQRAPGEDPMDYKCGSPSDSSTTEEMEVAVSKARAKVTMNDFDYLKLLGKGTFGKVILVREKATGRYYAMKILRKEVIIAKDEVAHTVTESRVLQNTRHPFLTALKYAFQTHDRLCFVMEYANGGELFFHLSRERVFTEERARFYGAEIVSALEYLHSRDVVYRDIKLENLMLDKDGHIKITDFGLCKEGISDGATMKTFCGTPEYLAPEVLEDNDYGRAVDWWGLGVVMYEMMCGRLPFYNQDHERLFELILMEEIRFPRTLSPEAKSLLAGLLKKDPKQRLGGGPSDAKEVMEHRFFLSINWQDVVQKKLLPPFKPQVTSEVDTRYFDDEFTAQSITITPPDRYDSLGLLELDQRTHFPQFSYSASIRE
Excerpt: KIP peptides […] [SEQ ID NO: 142], […] [SEQ ID NO: 173], and […] [SEQ ID NO: 163] were utilized to profile a variety of different kinases. The kinase profiler assay services provided by Upstate, a part of Millipore Corporation (Billerica, Mass.), were utilized to conduct the kinase profiles. The kinase profiler assays, which are radiometric, are based on measuring the amount of radioactive transfer from an ATP (y-^33P-ATP) to a substrate peptide using known concentrations of kinase enzyme, inhibitor, ATP, and buffer at defined time points and temperatures. Details on the reaction conditions for each kinase are available at www.millipore.com/drugdiscovery/dd3/KinaseProfiler. […] ROCK-1(h) (5-10 mU) was incubated with 8 mM MOPS pH 7.0, 0.2 mM EDTA, 30 i.IM of the peptide […] [SEQ ID NO: 189], 10 mM Mg acetate and y-^33P-ATP (specific activity approximately 500 cpm/pmol, concentration as required) in a final reaction volume of 25 pl. The reaction was initiated by the addition of the MgATP mixture in the absence and presence of inhibitor compounds. After incubation for 40 minutes at room temperature, the reaction was stopped by the addition of 5) 11 of a 3% phosphoric acid solution. 10 pl of the reaction mixture then was spotted onto a P30 filtermat. The filtermat was washed three times for 5 minutes in 75 mM phosphoric acid, once in methanol, dried and counted by scintillation counting. Where the kinase is uninhibited, the kinase phosphorylates a positively charged substrate with radioactive ATP, which then binds to a negatively charged filter membrane. Scintillation counts (radioactivity) directly correlate with kinase activity. […] All profile data less than 100 indicate kinase inhibition while data greater than 100 indicate kinase stimulation.

MAPKAP kinase II (MK2) = MAPKAP kinase II (MK2) (Homo sapiens, UniProt P49137); assay: Omnia Lysate Assay for MAPKAP-K2: MK2 reaction velocity; format: biochemical; conditions: same assay conditions as Example 1
MAPKAP kinase II (MK2), sequence (P49137 whole entry, species assumed): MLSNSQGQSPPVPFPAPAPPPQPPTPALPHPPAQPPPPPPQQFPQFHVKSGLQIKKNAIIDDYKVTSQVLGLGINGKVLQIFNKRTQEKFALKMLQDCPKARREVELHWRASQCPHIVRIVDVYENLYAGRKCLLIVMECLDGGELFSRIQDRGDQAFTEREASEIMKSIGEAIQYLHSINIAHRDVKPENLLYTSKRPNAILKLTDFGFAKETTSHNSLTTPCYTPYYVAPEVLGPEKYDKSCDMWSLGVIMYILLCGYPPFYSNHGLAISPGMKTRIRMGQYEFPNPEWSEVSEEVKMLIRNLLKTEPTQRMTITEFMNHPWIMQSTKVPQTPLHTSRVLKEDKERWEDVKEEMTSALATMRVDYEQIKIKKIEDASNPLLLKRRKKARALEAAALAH
Experimental: Using the Omnia™ Lysate Assay for MAPKAP-K2 kit (Invitrogen, Carlsbad, Calif.), the reaction velocity for MK2 was determined in the presence and absence of each of the peptides listed in Table 2. Briefly, inhibitor peptide concentrations at 12.5 μmol, 25 μmol, 50 μmol and 100 μmol were evaluated. The kit contains a proprietary reaction buffer to which the following are added (final concentrations are given): 1 mM ATP, 0.2 mM DTT, 10 μM MAPKAP-K2 Sox-modified peptide substrate, 5 ng MK2, and the peptide inhibitor of interest (final volume of 50 μL). The reactions were performed in the wells of a low protein-binding 96-well plate provided with the kit, and fluorescence readings at 485 nm were taken every 30 seconds for 20 minutes in a Molecular Devices M5 Spectrophotometer. A peptide having the sequence […]
The MK2 inhibition activity of […] [SEQ ID NO: 134] transduction domain was compared with the MK2 inhibition activity of other known transduction domains—[…] [SEQ ID NO: 135] and […] [SEQ ID NO: 190]. The transduction domains were tested for MK2 activity using the same assay conditions as Example 1.
A set of MK2 inhibitor peptides having transduction domains was synthesized (see Table 5). Variants included peptides with the […] [SEQ ID NO: 134] transduction domain and alanine substituted for asparagine, alanine substituted for glycine, or both alanine substitutions in the therapeutic domain. The same peptides with the […] [SEQ ID NO: 135] transduction domain also were prepared. The reaction velocities of these variants were compared to the reaction velocity of a blank with no inhibitor added.

[1] = tested on: MCF-7 breast cancer cells; assay: Evaluation of apoptosis (Hoescht, Annexin V, propidium iodide staining); format: cell-based; conditions: MCF-7 cells, 24 hours, 3 μM or 10 μM
Experimental: MCF-7 breast cancer cells were seeded in individual wells of a 96-well plate and were maintained for 24 hours in a humidified, 5% CO2 incubator at 37° C. The next day, fresh media was added along with 1 μl of a stock solution of KIP peptide […] [SEQ ID NO: 166] to give a final concentration of 3 μM or 10 μM (n=4). After incubating the cells for 24 hours, cells were treated with Hoescht dye for nuclear staining, propidium iodide to stain for DNA from necrotic cells, and Annexin V to visualize apoptotic cells.

[2] = tested on: non estrogen dependent MDA 231 breast cancer cells; assay: Toxicity testing on cancer cell lines (MTT); format: cell-based; conditions: 72 hours, n=4, read-out: Cell Line IC50, MDA 231
Experimental: (§1) The seven cell lines were: estrogen dependent MCF-7 breast cancer cells, non estrogen dependent MDA 231 breast cancer cells, SF 539 central nervous system cancer cells, HT29 colon cancer cells, Paca 2 pancreatic cancer cells, PC3 prostate cancer cells, and A549 lung cancer cells. For each cell line, exponentially growing cells were trypsinized and seeded into individual wells of a 96-well plate. Cells were maintained in a humidified, 5% CO2 incubator at 37° C. for 24 hours. The next day, fresh media was added along with 1 μl of a stock solution of peptide to give final peptide concentrations of 0.3 μM, 1 μM, 3 μM, 10 μM, 30 μM, and 100 μM (n=4). Doxorubicin was tested as a positive control. After incubating the cells for 72 hours, to each well was added 20 μl of 0.5% MTT {3-([…])-2,5 diphenyl tetrazolium bromide} solution. The plates then were incubated for an additional 4 hours, at which time the absorbance at 570 nm was measured for each well using a microplate reader. The absorbance was plotted as function of peptide concentration, and IC50 values were calculated for each peptide for each cell line.

[3] = tested on: SF 539 central nervous system cancer cells; assay: Toxicity testing on cancer cell lines (MTT); format: cell-based; conditions: 72 hours, n=4, read-out: Cell Line IC50, SF 539
Experimental: as §1

[4] = tested on: estrogen dependent MCF-7 breast cancer cells; assay: Toxicity testing on cancer cell lines (MTT); format: cell-based; conditions: 72 hours, n=4, read-out: Cell Line IC50, MCF-7
Experimental: as §1

HT29 colon cancer cells = assay: Toxicity testing on cancer cell lines (MTT); format: cell-based; conditions: 72 hours, n=4, read-out: Cell Line IC50, HT29
Experimental: as §1

[5] = tested on: Paca 2 pancreatic cancer cells; assay: Toxicity testing on cancer cell lines (MTT); format: cell-based; conditions: 72 hours, n=4, read-out: Cell Line IC50, Paca 2
Experimental: as §1

A549 lung cancer cells = assay: Toxicity testing on cancer cell lines (MTT); format: cell-based; conditions: 72 hours, n=4, read-out: Cell Line IC50, A549
Experimental: as §1

[6] = tested on: PC3 prostate cancer cells; assay: Toxicity testing on cancer cell lines (MTT); format: cell-based; conditions: 72 hours, n=4, read-out: Cell Line IC50, PC3
Experimental: as §1

PKA = conditions: 1 μM AIP; cited from earlier work
[7] = tested on: Ca2+/calmodulin-dependent protein kinase II (CaMKII); conditions: cited from earlier work
PKC = conditions: 1 μM AIP; cited from earlier work
CaMKIV = target: T2, CaMKIV (Homo sapiens, UniProt Q16566); conditions: 1 μM AIP; cited from earlier work
T2 sequence (Q16566 1-473): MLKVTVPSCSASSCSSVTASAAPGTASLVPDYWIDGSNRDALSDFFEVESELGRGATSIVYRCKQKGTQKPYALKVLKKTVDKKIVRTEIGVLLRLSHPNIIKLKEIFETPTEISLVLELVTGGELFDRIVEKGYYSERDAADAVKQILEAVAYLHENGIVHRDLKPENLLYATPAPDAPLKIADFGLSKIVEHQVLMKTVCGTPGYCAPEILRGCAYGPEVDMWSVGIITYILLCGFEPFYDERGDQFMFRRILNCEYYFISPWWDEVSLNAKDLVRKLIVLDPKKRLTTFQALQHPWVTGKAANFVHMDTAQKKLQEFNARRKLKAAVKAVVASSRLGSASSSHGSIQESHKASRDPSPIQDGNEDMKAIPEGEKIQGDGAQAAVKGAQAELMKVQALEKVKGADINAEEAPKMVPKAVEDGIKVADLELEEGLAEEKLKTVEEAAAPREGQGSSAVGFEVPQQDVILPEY

Molecule	MK2 inhibition (in words) (MAPKAP kinase II (MK2))	IC50 [2]	IC50 [3]	IC50 [4]	IC50 (HT29 colon cancer cells)	IC50 [5]	IC50 (A549 lung cancer cells)	IC50 [6]	further results
CC(C)C[C@H](NC(=O)[C@H](C)NC(=O)[C@H](CCCCN)NC(=O)[C@H](CCCNC(=N)N)NC(=O)[C@H](Cc1ccc(O)cc1)NC(=O)[C@H](CC(C)C)NC(=O)[C@H](CCCNC(=N)N)NC(=O)[C@H](C)NC(=O)[C@H](C)NC(=O)[C@H](CC(C)C)NC(=O)[C@H](CCCCN)NC(=O)[C@H](C)NC(=O)[C@@H](N)Cc1ccccc1)C(=O)N[C@@H](C)C(=O)N[C@@H](CCCNC(=N)N)C(=O)N[C@@H](CCC(N)=O)C(=O)N[C@@H](CC(C)C)C(=O)NCC(=O)N[C@H](C(=O)N[C@@H](C)C(=O)N[C@@H](C)C(=O)O)C(C)C	–	–	–	–	–	–	–	–	Profile-1, AMPK (r) (AMPK (r)): 101; activity at 100 µM (PKB β (h)): 16%
CC(C)C[C@H](NC(=O)[C@H](C)NC(=O)[C@H](CCCCN)NC(=O)[C@H](CCCNC(=N)N)NC(=O)[C@H](Cc1ccc(O)cc1)NC(=O)[C@H](CC(C)C)NC(=O)[C@H](CCCNC(=N)N)NC(=O)[C@H](C)NC(=O)[C@H](C)NC(=O)[C@H](CC(C)C)NC(=O)[C@H](CCCCN)NC(=O)[C@H](C)NC(=O)[C@H](Cc1ccccc1)NC(=O)[C@H](C)NC(=O)[C@@H](N)CCCCN)C(=O)N[C@@H](C)C(=O)N[C@@H](CCCNC(=N)N)C(=O)N[C@@H](CCC(N)=O)C(=O)N[C@@H](CC(C)C)C(=O)NCC(=O)N[C@H](C(=O)N[C@@H](C)C(=O)N[C@@H](C)C(=O)O)C(C)C	–	–	–	–	–	–	–	–	Profile-1, AMPK (r) (AMPK (r)): 118; activity at 100 µM (PKB β (h)): 28%
CC[C@H](C)[C@H](NC(=O)[C@H](CCCNC(=N)N)NC(=O)[C@H](CCCNC(=N)N)NC(=O)[C@H](CC(C)C)NC(=O)[C@H](Cc1c[nH]c2ccccc12)NC(=O)[C@H](C)NC(=O)[C@H](CCCCN)NC(=O)[C@@H](NC(=O)[C@H](CCCNC(=N)N)NC(=O)[C@H](CCCNC(=N)N)NC(=O)[C@H](CC(C)C)NC(=O)[C@@H](N)Cc1c[nH]c2ccccc12)[C@@H](C)CC)C(=O)N[C@@H](CCCCN)C(=O)N[C@@H](C)C(=O)O	inhibited MK2 significantly more than KKKALNRQLGVAA	–	–	–	–	–	–	–	–
CC[C@H](C)[C@H](NC(=O)[C@H](CCCCN)NC(=O)[C@H](CCCCN)NC(=O)[C@H](CC(C)C)NC(=O)[C@H](Cc1c[nH]c2ccccc12)NC(=O)[C@H](C)NC(=O)[C@H](CCCCN)NC(=O)[C@@H](NC(=O)[C@H](CCCNC(=N)N)NC(=O)[C@H](CCCNC(=N)N)NC(=O)[C@@H](N)Cc1c[nH]cn1)[C@@H](C)CC)C(=O)N[C@@H](CCCCN)C(=O)N[C@@H](C)C(=O)N[C@@H](CC(C)C)C(=O)N[C@@H](C)C(=O)N[C@@H](CCCNC(=N)N)C(=O)N[C@@H](CCC(N)=O)C(=O)N[C@@H](CC(C)C)C(=O)NCC(=O)N[C@H](C(=O)N[C@@H](C)C(=O)N[C@@H](C)C(=O)O)C(C)C [Peptide 1]	–	9.3 µM	4.3 µM	1.6 µM	6.7 µM	9 µM	8.7 µM	6 µM	Annexin V staining relative to propidium iodide staining (apoptosis) [1]: annexin V staining was much more intense than propidium iodide staining
N=C(N)NCCC[C@H](NC(=O)[C@H](CCCNC(=N)N)NC(=O)[C@H](CCCNC(=N)N)NC(=O)[C@H](CCC(N)=O)NC(=O)[C@H](CCCNC(=N)N)NC(=O)[C@H](CCCNC(=N)N)NC(=O)[C@H](CCCCN)NC(=O)[C@H](CCCCN)NC(=O)[C@H](CCCNC(=N)N)NC(=O)CNC(=O)[C@@H](N)Cc1ccc(O)cc1)C(=O)O [reference compound]	also inhibit MK2 but not nearly as much as WLRRIKAWLRRIKA	–	–	–	–	–	–	–	–
KKALRRQEAVDAL [AIP]	–	–	–	–	–	–	–	–	PKA activity (PKA): not affected; CaMKII activity ([7]; 1 μM AIP): completely inhibited; IC50 [7]: 0.1 µM; PKC activity (PKC): not affected; CaMKIV activity (CaMKIV): not affected
WLRRIKA [WLRRIKA]	same level of inhibition as the no inhibitor control	–	–	–	–	–	–	–	–
WLRRIKAHRRIKALARQLGVAA [Peptide 2]	–	19.9 µM	26 µM	7.8 µM	26.4 µM	19.5 µM	31.9 µM	28.9 µM	–
WLRRIKAWLRR [Peptide 3]	–	17.4 µM	22 µM	13.5 µM	20.7 µM	42.5 µM	34.3 µM	35.5 µM	–
WLRRIKAWLRRALNRQLGVAA [Peptide 4]	–	12 µM	10 µM	4.4 µM	11.8 µM	11.2 µM	12.5 µM	23.7 µM	–
YARAAARQARA [reference compound]	also inhibit MK2 but not nearly as much as WLRRIKAWLRRIKA	–	–	–	–	–	–	–	–

Source: patent publication US8741849B2, “Kinase inhibitors and uses thereof” (priority 2007, dated 2014)
